Values of other authors, collected in US12564552B2, “Oral product with a basic amine and an ion pairing agent” (NICOVENTURES TRADING LIMITED, priority 2021, dated 2026).

Assays:
[1] = not given; remark: listed apart in the source
human buccal tissue = conditions: nicotine solution pH=6 vs pH 8.1, perfusion cell, Adrian et al.

SMILES	solubility in water	solubility in fats and alcohols	chemical stability (isolated, isomerizes to trans-bixin (β-bixin))	log Ka1 (pyridine ring nitrogen) ([1]; pyridine ring nitrogen)	log Ka2 (pyrrolidine ring nitrogen) ([1]; pyrrolidine ring nitrogen)	factor by which diffusion rate is reduced at pH 6 relative to pH 8.1 (human buccal tissue)
CC(/C=C/C=C(C)/C=C/C(=O)O)=C\C=C\C=C(C)\C=C\C=C(C)\C=C\C(=O)O (stereo in doubt) [norbixin, (2E,4E,6E,8E,10E,12E,14E,16E,18E)-4,8,13,17-tetramethylicosa-2,4,6,8,10,12,14,16,18-nonaenedioic acid]	water-soluble					
COC(=O)/C=C/C(C)=C\C=C\C(C)=C\C=C\C=C(C)\C=C\C=C(C)\C=C\C(=O)O [bixin, (2E,4E,6E,8E,10E,12E,14E,16Z,18E)-20-methoxy-4,8,13,17-tetramethyl-20-oxoicosa-2,4,6,8,10,12,14,16,18-nonaenoic acid]	insoluble in water	soluble in fats and alcohols	chemically unstable when isolated			
CN1CCCC1c1cccnc1 (stereo not shown) [nicotine]				3.41	8.02	~7
